Results taken from PubChem BioAssay (NCI).
Where “and” joins values, the source holds several entries; their conditions need not be identical. Equal entries are not always repeated.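 Following 48 hours of exposure in 96-well plates, responses at five concentrations were used to interpolate endpoints linearly. GI50 is the concentration that inhibits growth by half. TGI: concentration producing complete growth inhibition.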

Experiments:
Test in all cases: growth of human tumour cells (NCI), 48 h
786-0 renal = test system: 786-0 renal
ACHN renal = test system: ACHN renal
HOP-92 NSCLC = test system: HOP-92 NSCLC
MALME-3M melanoma = test system: MALME-3M melanoma
MDA-MB-231 breast = test system: MDA-MB-231 breast
NCI-H23 lung = test system: NCI-H23 lung
NCI/ADR-RES ovarian = test system: NCI/ADR-RES ovarian
OVCAR-3 ovarian = test system: OVCAR-3 ovarian
OVCAR-4 ovarian = test system: OVCAR-4 ovarian
OVCAR-5 ovarian = test system: OVCAR-5 ovarian
OVCAR-8 ovarian = test system: OVCAR-8 ovarian
PC-3 prostate = test system: PC-3 prostate
SF-268 CNS = test system: SF-268 CNS
SK-MEL-2 melanoma = test system: SK-MEL-2 melanoma
SK-MEL-28 melanoma = test system: SK-MEL-28 melanoma
SK-OV-3 ovarian = test system: SK-OV-3 ovarian
T-47D breast = test system: T-47D breast
TK-10 renal = test system: TK-10 renal
UO-31 renal = test system: UO-31 renal

Structure (SMILES) | TGI (786-0 renal) [µM] | TGI (ACHN renal) [µM] | TGI (HOP-92 NSCLC) [µM] | TGI (MALME-3M melanoma) [µM] | TGI (MDA-MB-231 breast) [µM] | TGI (NCI-H23 lung) [µM] | TGI (NCI/ADR-RES ovarian) [µM] | TGI (OVCAR-3 ovarian) [µM] | TGI (OVCAR-4 ovarian) [µM] | TGI (OVCAR-5 ovarian) [µM] | TGI (OVCAR-8 ovarian) [µM] | TGI (PC-3 prostate) [µM] | TGI (SF-268 CNS) [µM] | TGI (SK-MEL-2 melanoma) [µM] | TGI (SK-MEL-28 melanoma) [µM] | TGI (SK-OV-3 ovarian) [µM] | TGI (T-47D breast) [µM] | TGI (TK-10 renal) [µM] | TGI (UO-31 renal) [µM] | GI50 (MALME-3M melanoma)
CC(=O)c1c(SCCN2CCOCC2)n(-c2ccccc2)c(=S)n(-c2ccccc2)c1=O | 26.4 | 30.1 | 30.5 | 58.6 | 37.1 | > 64.5 | > 100 | 29.3 | > 68.9 | > 100 | 39.5 | 32 | 39.7 | 39.4 | 57.8 | > 74.2 | 55.5 | 31.2 | 27.1 | 
CCN(CC)Cc1ccccc1CC(=O)N1c2ccccc2C(=O)Nc2cccnc21 | > 100 | > 100 | > 100 | > 100 | > 100 | > 100 | > 100 | > 100 | > 100 | > 100 | > 100 | > 100 | > 100 | > 100 | > 100 | > 100 | > 100 | > 100 |  | 
Cc1ccc(/C=C2/N=C(N/N=C\C(O)C(O)C(O)CO)NC2=O)cc1 (configuration not stated) | > 100 | > 100 | > 100 | > 100 | > 100 |  | > 100 | > 100 | > 100 | > 100 | > 100 | > 100 | > 100 | > 100 | > 100 | > 100 | > 100 | > 100 | > 100 | > 100 µM and 42.1 µM
CCCN(CCC)C(=S)N/N=C(/C)c1ccccc1O | 26.7 | > 51.9 | > 76.8 | 28.8 | 52.8 | > 68.2 | 5.57 | 14.9 | 32.3 | > 62.9 | 33 | > 100 | > 35.6 | 60.9 | > 100 | > 75.5 | > 28.9 | 66.4 | > 100 | 
COC(=O)C1CCC(=O)N1CN(C(C)=O)c1cc(OC)ccc1OC (configuration not stated) | > 100 | > 100 | > 100 | > 100 | > 100 | > 100 | > 100 | > 100 | > 100 | > 100 | > 100 | > 100 | > 100 | > 100 | > 100 | > 100 | > 100 | > 100 | > 100 | 
Cc1c(O)c(OC2OC(CO)C(O)C(O)C2O)cc2c1C=C[C@@H]1[C@@]2(C)C(=O)C[C@]2(C)[C@@H]([C@@](C)(O)C(O)/C=C/C(C)(C)O)[C@H](O)C[C@@]12C (some centres not stated) | > 100 | > 100 | > 100 | > 100 | > 100 | > 100 | > 100 | > 100 | > 100 | > 100 | > 100 | > 100 | > 100 | > 100 | > 100 | > 100 | > 100 | > 100 | > 100 | 
Cc1cc(S(=O)(=O)Nc2nnc3c4ccccc4cnn23)c(S)cc1Cl | > 100 | > 100 | > 100 | > 100 | > 100 | > 100 | > 100 | > 100 | > 100 | > 100 | > 100 | > 100 | > 100 | > 100 | > 100 | > 92.7 | > 100 | > 100 | > 100 | 
O=[N+]([O-])c1ccc(-n2nc3ccc4c(no[n+]4[O-])c3[n+]2[O-])c([N+](=O)[O-])c1 | 7.97 | 5.7 | 8.02 | 7.45 | 4.64 | 5.43 | 11 | 6.39 | 3.19 | 17 | 6.05 | 20.7 | 13.8 | 9.92 | 6.47 | 23 | 6.63 | 6.88 | 13.2 | 
c1csc(-c2nccc3c2[nH]c2ccccc23)c1 | 32.9 | 73.7 | 41.5 | 47.2 | 48.1 | 38.2 | 54.8 | 49.4 | 55.1 | 85.5 | 42.8 | 61.3 | 56.7 | 41.8 | 43 | 41.5 | 63.2 | 48.7 |  | 
O=C(CC(O)(C(F)(F)F)C(F)(F)Cl)CC(O)(C(F)(F)F)C(F)(F)Cl (configuration not stated) | > 10 | > 10 | 4.57 | 6.34 | 5.43 | 4.34 | 9.5 | 9.14 | > 10 |  | > 10 | 7.37 | > 10 | 4.15 | > 10 | 4.69 | > 10 | 9.9 | > 10 | 
